# In PubChem BioAssay (NCI):
#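 Compound exposure: 48 hours, 5 concentrations, 96-well plates. The concentration for full growth arrest is given as TGI.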
# Experiments:
# Experiment in all cases: inhibition of tumour cell growth, NCI panel, 48 h
# 786-0 renal = system: 786-0 renal
# A498 renal = system: A498 renal
# A549 NSCLC = system: A549 NSCLC
# ACHN renal = system: ACHN renal
# BT-549 breast = system: BT-549 breast
# CAKI-1 renal = system: CAKI-1 renal
# CCRF-CEM leukemia = system: CCRF-CEM leukemia
# COLO 205 colon = system: COLO 205 colon
# DU-145 prostate = system: DU-145 prostate
# EKVX NSCLC = system: EKVX NSCLC
# HCC-2998 colon = system: HCC-2998 colon
# HCT-116 colon = system: HCT-116 colon
# HCT-15 colon = system: HCT-15 colon
# HOP-62 NSCLC = system: HOP-62 NSCLC
# HOP-92 NSCLC = system: HOP-92 NSCLC
# HT29 colon = system: HT29 colon
# IGROV1 ovarian = system: IGROV1 ovarian
# K-562 leukemia = system: K-562 leukemia
# KM12 colon = system: KM12 colon
# LOX IMVI melanoma = system: LOX IMVI melanoma
# M14 melanoma = system: M14 melanoma
# MALME-3M melanoma = system: MALME-3M melanoma
# MCF7 breast = system: MCF7 breast
# MDA-MB-231 breast = system: MDA-MB-231 breast
# MDA-MB-435 = system: MDA-MB-435
# MDA-N = system: MDA-N
# MOLT-4 leukemia = system: MOLT-4 leukemia
# NCI-H226 lung = system: NCI-H226 lung
# NCI-H23 lung = system: NCI-H23 lung
# NCI-H460 lung = system: NCI-H460 lung
# NCI-H522 lung = system: NCI-H522 lung
# NCI/ADR-RES ovarian = system: NCI/ADR-RES ovarian
# OVCAR-3 ovarian = system: OVCAR-3 ovarian
# OVCAR-4 ovarian = system: OVCAR-4 ovarian
# OVCAR-5 ovarian = system: OVCAR-5 ovarian
# OVCAR-8 ovarian = system: OVCAR-8 ovarian
# PC-3 prostate = system: PC-3 prostate
# RPMI-8226 leukemia = system: RPMI-8226 leukemia
# SF-268 CNS = system: SF-268 CNS
# SF-295 CNS = system: SF-295 CNS
# SF-539 CNS = system: SF-539 CNS
# SK-MEL-2 melanoma = system: SK-MEL-2 melanoma
# SK-MEL-28 melanoma = system: SK-MEL-28 melanoma
# SK-MEL-5 melanoma = system: SK-MEL-5 melanoma
# SK-OV-3 ovarian = system: SK-OV-3 ovarian
# SN12C renal = system: SN12C renal
# SNB-19 CNS = system: SNB-19 CNS
# SNB-75 CNS = system: SNB-75 CNS
# SR leukemia = system: SR leukemia
# SW-620 colon = system: SW-620 colon
# TK-10 renal = system: TK-10 renal
# U251 CNS = system: U251 CNS
# UACC-257 melanoma = system: UACC-257 melanoma
# UACC-62 melanoma = system: UACC-62 melanoma
# UO-31 renal = system: UO-31 renal
# HL-60(TB) leukemia = system: HL-60(TB) leukemia
# HS 578T breast = system: HS 578T breast
# RXF 393 renal = system: RXF 393 renal
structure (smiles),measurement,setting,value
CC(C)CC(=O)NC(C(=O)NC(C(=O)NC(CC(C)C)C(O)CC(=O)NC(C)C(=O)NC(CC(C)C)C(O)CC(=O)O)C(C)C)C(C)C (stereo unspecified),TGI,786-0 renal,> 100 µM
same,TGI,A498 renal,> 100 µM
same,TGI,A549 NSCLC,> 100 µM
same,TGI,ACHN renal,> 100 µM
same,TGI,BT-549 breast,> 100 µM
same,TGI,CAKI-1 renal,> 100 µM
same,TGI,CCRF-CEM leukemia,> 100 µM
same,TGI,COLO 205 colon,> 100 µM
same,TGI,DU-145 prostate,> 100 µM
same,TGI,EKVX NSCLC,> 100 µM
same,TGI,HCC-2998 colon,> 100 µM
same,TGI,HCT-116 colon,> 100 µM
same,TGI,HCT-15 colon,> 100 µM
same,TGI,HOP-62 NSCLC,> 100 µM
same,TGI,HOP-92 NSCLC,> 100 µM
same,TGI,HT29 colon,> 100 µM
same,TGI,IGROV1 ovarian,> 100 µM
same,TGI,K-562 leukemia,> 100 µM
same,TGI,KM12 colon,> 100 µM
same,TGI,LOX IMVI melanoma,> 100 µM
same,TGI,M14 melanoma,> 100 µM
same,TGI,MALME-3M melanoma,> 100 µM
same,TGI,MCF7 breast,> 100 µM
same,TGI,MDA-MB-231 breast,> 100 µM
same,TGI,MDA-MB-435,> 100 µM
same,TGI,MDA-N,> 100 µM
same,TGI,MOLT-4 leukemia,> 100 µM
same,TGI,NCI-H226 lung,> 100 µM
same,TGI,NCI-H23 lung,> 100 µM
same,TGI,NCI-H460 lung,> 100 µM
same,TGI,NCI-H522 lung,> 100 µM
same,TGI,NCI/ADR-RES ovarian,> 100 µM
same,TGI,OVCAR-3 ovarian,> 100 µM
same,TGI,OVCAR-4 ovarian,> 100 µM
same,TGI,OVCAR-5 ovarian,> 100 µM
same,TGI,OVCAR-8 ovarian,> 100 µM
same,TGI,PC-3 prostate,> 100 µM
same,TGI,RPMI-8226 leukemia,> 100 µM
same,TGI,SF-268 CNS,> 100 µM
same,TGI,SF-295 CNS,> 100 µM
same,TGI,SF-539 CNS,> 100 µM
same,TGI,SK-MEL-2 melanoma,> 100 µM
same,TGI,SK-MEL-28 melanoma,> 100 µM
same,TGI,SK-MEL-5 melanoma,> 100 µM
same,TGI,SK-OV-3 ovarian,> 100 µM
same,TGI,SN12C renal,> 100 µM
same,TGI,SNB-19 CNS,> 100 µM
same,TGI,SNB-75 CNS,> 100 µM
same,TGI,SR leukemia,> 100 µM
same,TGI,SW-620 colon,> 100 µM
same,TGI,TK-10 renal,> 100 µM
same,TGI,U251 CNS,> 100 µM
same,TGI,UACC-257 melanoma,> 100 µM
same,TGI,UACC-62 melanoma,> 100 µM
same,TGI,UO-31 renal,> 100 µM
CCCN(CCC)C(=S)N/N=C/c1ccccn1,TGI,786-0 renal,1.07 µM
same,TGI,A498 renal,4.03 µM
same,TGI,A549 NSCLC,11.9 µM
same,TGI,ACHN renal,0.384 µM
same,TGI,BT-549 breast,22.5 µM
same,TGI,CAKI-1 renal,15.9 µM
same,TGI,CCRF-CEM leukemia,0.255 µM
same,TGI,COLO 205 colon,0.509 µM
same,TGI,DU-145 prostate,> 43.8 µM
same,TGI,EKVX NSCLC,11.3 µM
same,TGI,HCC-2998 colon,19.6 µM
same,TGI,HCT-116 colon,1.58 µM
same,TGI,HCT-15 colon,16.8 µM
same,TGI,HL-60(TB) leukemia,0.207 µM
same,TGI,HOP-62 NSCLC,3.18 µM
same,TGI,HOP-92 NSCLC,26.7 µM
same,TGI,HS 578T breast,> 100 µM
same,TGI,HT29 colon,> 37.4 µM
same,TGI,KM12 colon,16.1 µM
same,TGI,LOX IMVI melanoma,13.4 µM
same,TGI,M14 melanoma,0.281 µM
same,TGI,MALME-3M melanoma,6.05 µM
same,TGI,MDA-MB-435,18.8 µM
same,TGI,MDA-N,14.8 µM
same,TGI,NCI-H226 lung,1.14 µM
same,TGI,NCI-H23 lung,19.5 µM
same,TGI,NCI-H460 lung,0.187 µM
same,TGI,NCI-H522 lung,1.67 µM
same,TGI,NCI/ADR-RES ovarian,< 0.0354 µM
same,TGI,OVCAR-4 ovarian,0.9 µM
same,TGI,OVCAR-5 ovarian,21.4 µM
same,TGI,OVCAR-8 ovarian,11.9 µM
same,TGI,PC-3 prostate,16.1 µM
same,TGI,RPMI-8226 leukemia,0.566 µM
same,TGI,RXF 393 renal,3.41 µM
same,TGI,SF-295 CNS,21.7 µM
same,TGI,SF-539 CNS,0.734 µM
same,TGI,SK-MEL-2 melanoma,14.9 µM
same,TGI,SK-MEL-28 melanoma,> 63.9 µM
same,TGI,SK-MEL-5 melanoma,0.954 µM
same,TGI,SK-OV-3 ovarian,28.6 µM
same,TGI,SN12C renal,0.678 µM
same,TGI,SNB-19 CNS,32.1 µM
same,TGI,SNB-75 CNS,0.413 µM
same,TGI,SR leukemia,0.247 µM
same,TGI,SW-620 colon,28.6 µM
same,TGI,TK-10 renal,15.1 µM
same,TGI,U251 CNS,> 25.4 µM
same,TGI,UACC-257 melanoma,0.195 µM
same,TGI,UACC-62 melanoma,1.91 µM
same,TGI,UO-31 renal,4 µM
